System: oxidative stress
Experiment: oxidative stress in vitro model
Format: cell-based
Conditions: pterostilbene compared with resveratrol

Structure (SMILES): Oc1ccc(C=Cc2cc(O)cc(O)c2)cc1 [resveratrol]
- treatment of oxidative stress: comparable

Source: patent publication US20180272042A1, “DRUG-POLYMER FILM FOR CONTROLLED LOCAL DELIVERY AT TISSUE-DEVICE INTERFACE” (Brown University, priority 2017, published 2018)
